For data set [1], the system named is SMN2-luciferase reporter. Kind of data set: SMN2-luciferase reporter assay (clonal HEK-293 SMN2-luc cells). The data set is classed as cell-based, human. On the set-up: increase of luciferase activity: dose or concentration left out as unconfirmed. Conditions: for S/B: 0.5 mg/mL sodium butyrate vs DMSO; for EC50: Homo sapiens; for Na-But RLU ave: 0.5 mg/mL sodium butyrate. For orientation: A reporter such as luciferase makes a cellular process visible.

Data set [2] deals with SMN-luciferase transcripts. Description: qRT-PCR of SMN-luciferase transcripts in SMN2-luc cells. The class given is cell-based, human. Conditions: 24 hours, relative to DMSO, normalized to GAPDH, aclarubicin at 300 nM, words. As for the experimental part:
Compounds were tested at three concentrations that display maximal activity in the luciferase assay. Cells were treated as described above for the luciferase assay. Cells were harvested by trypsinization, neutralized with trypsin inhibitor, and washed. RNA was isolated from the cells using TRIZOL Reagent (Invitrogen 15596-026). cDNA was generated using the IMPROM-II Reverse Transcription System (Promega A3801).
The forward primer pair recognizes the exon 5-6 junction, which includes a restriction site that was engineered into the reporter and will exclude amplification of endogenous SMN mRNA. The reverse primers recognize either exon 7 or luciferase for detection of full-length or total SMN-luciferase transcripts respectively. For a reference control, cDNA from the housekeeping gene glyceraldehyde-3-phosphate dehydrogenase (GAPDH) was amplified. The primers used include SMN exon5-forward ([…]) (SEQ ID NO: 3), luciferase-reverse ([…]) (SEQ ID NO: 4), exon7-reverse ([…]) (SEQ ID NO: 5), GAPDH-reverse (G3A) ([…]) (SEQ ID NO: 6) and GAPDH-forward (G3S) ([…]) (SEQ ID NO: 7). qPCR was performed as described in the protocol for iQ SYBRGREEN SUPERMIX (Biorad 170-8882) using an EPPENDORF Mastercycler ep realplex^4 Thermo Cycler. Reactions were incubated for a 10 minute, 94° C. hot start followed by 45 cycles of the following: 94° C. for 45 second, 60° C. for 15 seconds, 72° C. for 45 seconds. Melting curves for each reaction were obtained. Each sample was assayed in triplicate and every plate contained a 5-point cDNA dilution course to calculate amplification efficiency for each primer pair. The Pfaffl method was used to determine the change in transcript levels relative to the DMSO and normalized to GAPDH (Pfaffl, M. W., “A new mathematical model for relative quantification in real-time RT-PCR,” Nucleic Acids Res 2001, 29(9), 3e45).
Based on the new reporter design, it was predicted that this screen could detect increased SMN-luciferase protein levels caused by compounds that stimulate SMN2 transcription, exon 7 inclusion, or by increasing the half-life of the SMN mRNA or protein. Quantitative reverse transcriptase PCR (qRT-PCR) was used to analyze SMN-luciferase mRNAs. All assays used RNA from control and compound-treated SMN2-luc cells and primers pairs were chosen to amplify only the SMN-luciferase derived transcripts (FIG. 4A). A pair of primers were used that specifically detects both full-length (exon 7 included) and Δ7 (exon 7 excluded) SMN-luciferase transcripts (primers 1 and 3). To measure changes in exon 7 splicing efficiency, a primer pair was used that detects only the full-length (exon 7 included) SMN-luciferase transcript (primers 1 and 2).
For each sample, the percent increase in the amount of total SMN-luciferase transcripts (gray bar) and exon 7 included full-length SMN-luciferase transcripts (white bar) was plotted (FIG. 4). Compounds that increase transcription should show increased total SMN-luciferase transcripts (gray bar) with a proportional increase for exon 7 included transcripts (white bar), assuming that proper splicing of exon 7 is not rate limiting. Compounds that stimulate exon 7 inclusion should increase the amount of exon 7 included full-length transcript (white bar) detected with little to no change in the expression of total SMN-luciferase transcripts (gray bar). In these experiments, cells were treated with compound, harvested, and each cell pellet was divided for isolation of RNA and to assay luciferase activity. Each qRT-PCR sample was normalized to the housekeeping gene glyceraldehyde-3-phosphate dehydrogenase (GAPDH). The Pfaffl method was used to calculate the change in the amount of total SMN mRNA and determine whether compound treatments increased SMN transcripts.
For orientation: Quantitative PCR measures a nucleic acid by following its amplification.

In data set [3] the test system is SMN2-luciferase reporter. Kind of data set: SMN2-luciferase reporter assay (clonal HEK-293 SMN2-luc cells). The data set is classed as cell-based, human. Conditions: for S/B: 0.5 mg/mL sodium butyrate vs DMSO.
Data set [4] in a line: Solubility in PBS / aqueous solution. The class given is physicochemical.
The next data set has as its system SMA mice. Description: SMA mice, intraperitoneal dosing: lifespan, weight, time to right. The class given is in vivo, mouse. Conditions: for Time to right: individual pup, raw data. As for the experimental part:
The animal studies included new derivatives of LDN-76070 and LDN-75654. Mice were injected intraperitoneally once daily from post-natal day 1-10. […] Compounds LDN-212014, LDN-212016, LDN-212351, and LDN-212391 were injected into a cohort of animals (3-4 each). […] In the Kaplan-Meier curve that DMSO control decreased survival by 50%—the compounds were in […] (FIG. 26A).
LDN-212014 and LDN-76070 were further tested in A7 SMA model mice. Mice were dosed using compounds dissolved in 100% DMSO injected at 20 mg/kg with each dose administered once daily by intraperitoneal injection. As shown in the black curves in the Kaplan-Meier plot, control animals lived 4-5 days longer than the DMSO vehicle treated animals, indicating toxicity. […] In fact, the compounds display a statistically significant increase in survival compared with the untreated animals. These compounds extend the lifespan of SMA mice despite the DMSO toxicity.
In ‘time to right’ experiments, animals are placed on their backs and the duration for animals to right themselves is recorded. Animals that are unable to right in less than 30 seconds are scored as a failure. DMSO treated animals were unable to right themselves, while a small percentage of untreated animals display the ability to right themselves for up to postnatal day (PND) 11. A larger percentage of treated animals can right themselves past PND 17, and in the case of one animal as late as PND 21.

Data set [5] can be described thus: Liver microsome stability. (In general: Liver microsomes are vesicles of endoplasmic reticulum, rich in cytochrome P450 enzymes.)
Setting [6] is: 96-well validation, 25,000 cells per well, 24 hrs.
[7] abbreviates: 96-well validation, 50,000 cells per well, 24 hrs.
Where [8] appears, read: 96-well validation, 50,000 cells per well, 48 hrs.
Setting [9] is: 384-well validation, 5,000 cells per well, 24 hrs.
Where [10] appears, read: 384-well validation, 10,000 cells per well, 24 hrs.
Where [11] appears, read: 96-well validation, 25,000 cells per well, 48 hrs.
[12] abbreviates: 384-well LDDN screen, 10,000 cells per well, 24 hrs.

Converted amounts (≈) assume the structure as drawn. “And” between values parts separate entries of the source, which are not always exact repeats. Equal values may be shown once. Read-outs that look alike come from different tables or passages of the source.

Usually EC50 stands for the midpoint of the concentration-response curve. On to `CCCC(=O)[O-].[Na+]` [sodium butyrate, reference compound], for which the S/B with SMN2-luciferase reporter [1] (setting [6]) was 3.0; in the data set with SMN2-luciferase reporter [1] (setting [7]) it was 3.5; with SMN2-luciferase reporter [1] (setting [8]), 2.9; with SMN2-luciferase reporter [1] (setting [9]), 2.6; with SMN2-luciferase reporter [1] (setting [10]) it was 4.9; in the data set with SMN2-luciferase reporter [3] (setting [11]), 2.6. The S/B was 3.0 with SMN2-luciferase reporter [3] (setting [12]) and 2.8 in the data set on SMN2-luciferase reporter [3] (384-well validation, 7,500 cells per well, 24 hrs). Moreover, the “increase of luciferase activity” value in the data set with SMN2-luciferase reporter [1] (96-well format, sodium butyrate) is given as “more than 3 fold”. This compound yielded an EC50 in the data set on SMN2-luciferase reporter [1] (HEK293) of 1000 µg/mL. Besides, the Max. fold increase with SMN2-luciferase reporter [1] (cell-based reporter response to known SMN2 modulating compounds) is 10 fold. Also, the “exon 7 included full-length SMN-luciferase transcripts” value in data set [2] is “increased”. For the same compound, the “total SMN-luciferase transcripts” value in data set [2] was “increased”.

One may read the solubility as how much of the substance goes into solution per volume. Usually half-life stands for how long it takes for the measured level to halve. On to `COc1cc2c(c(OC)c1OC)C(c1cc(Cl)ccc1F)NC(=O)N2` (stereo not drawn) [LDN-212391], for which the EC50 with SMN2-luciferase reporter [1] (HEK293, Table 7, read-out: EC50) is 5 µM; in the data set on SMN2-luciferase reporter [1] (HEK293, reporter assay, Table 6, read-out: Ec50), 4.4 µM. This compound came in with a Maximum % activation in the data set with SMN2-luciferase reporter [1] (Table 7) of 238.3 ± 28.5%. Also, the Active entry with SMN2-luciferase reporter [1] (reporter assay, Table 6) was “Yes”. Also, in the data set on SMN2-luciferase reporter [1] (reporter assay, Table 6), the “Max % Activity” value came out at 267%. The solubility in data set [4] (PBS, aqueous buffer, read-out: Maximal solubility in PBS) was 1000 µM (≈ 367 µg/mL); in data set [4] (aqueous solution, Table 8, grades, read-out: Solubility in aqueous solution), 500 to 2000 µM (≈ 183 to 734 µg/mL). For the same compound, in the data set with SMA mice (IP once daily post-natal day 1-10, compounds in 20% DMSO, 3-4 animals each, words), the lifespan entry is “extension of lifespan”. The “weight of the treated animals” value in the data set on SMA mice (IP once daily post-natal day 1-10, compounds in 20% DMSO, words) is “increased”. Besides, the Time to right result was “Fail (Fail = >30 sec)” with SMA mice (PND 6); “Fail (Fail = >30 sec)” with SMA mice (PND 7); “Fail (Fail = >30 sec)” in the data set with SMA mice (PND 8); “Fail (Fail = >30 sec) (2×) and 18 seconds” with SMA mice (PND 9); “Fail (Fail = >30 sec) (2×) and 20 seconds” with SMA mice (PND 10); “Fail (Fail = >30 sec)” in the data set on SMA mice (PND 11). The Time to right entry with SMA mice (PND 12) was “dead and Fail (Fail = >30 sec) (2×)”; in the data set with SMA mice (PND 13) it was “dead and Fail (Fail = >30 sec) (2×)”; in the data set on SMA mice (PND 14) it was “dead and Fail (Fail = >30 sec) (2×)”; in the data set on SMA mice (PND 15) it was “dead and Fail (Fail = >30 sec) (2×)”; in the data set on SMA mice (PND 16), “dead (2×) and Fail (Fail = >30 sec)”; in the data set on SMA mice (PND 17), “dead (2×) and Fail (Fail = >30 sec)”. For the same compound, the Time to right entry in the data set with SMA mice (PND 18) was “dead (2×) and Fail (Fail = >30 sec)”; in the data set on SMA mice (PND 19), “dead (2×) and Fail (Fail = >30 sec)”; with SMA mice (PND 20), “dead”. The same compound gave a Stabilityin liver microsomes in data set [5] (Table 8) of 13 to 20 min. Moreover, in data set [5] (Table 9), the Stability is 13 to 20 min. In data set [5] (mouse, liver microsomes, T1/2 in liver microsomes, Table 7), this compound had a half-life of 13 min.

As for `CCCC(=O)[O-].[Na+]` [Na-But], the “Na-But RLU ave” value was found to be 2046 RLU in the data set with SMN2-luciferase reporter [1] (setting [6]); 3696 RLU with SMN2-luciferase reporter [1] (setting [11]); 4798 RLU in the data set with SMN2-luciferase reporter [1] (setting [7]); 7505 RLU in the data set with SMN2-luciferase reporter [1] (setting [8]); 13894 RLU with SMN2-luciferase reporter [1] (setting [12]); 1332 RLU with SMN2-luciferase reporter [1] (setting [9]). For the same compound, the “Na-But RLU ave” value in the data set on SMN2-luciferase reporter [1] (setting [10]) is 39287 RLU; in the data set on SMN2-luciferase reporter [3] (0.5 mg/mL sodium butyrate, 384-well validation, 7,500 cells per well, 24 hrs) it was 2832 RLU.

For the origin of these results see patent US9212209B2, “Screening methods for spinal muscular atrophy” (Indiana University Research and Technology Corporation, priority 2012, dated 2015).
